Laboratory results taken from patent publication US9408908B2, “Combination adjuvant formulation” (University of Saskatchewan, priority 2008, dated 2016).
“Also recorded” adds a separate entry of the source. No end group written: not given here.

Key:
human PBMC [1] = test: Chemokine induction by host defense peptides in human PBMC (ELISA); assay type: cell-based
Procedure: (§1) These peptides were tested for induction of chemokines and cytokines in human PBMCs. Human PBMCs stimulated with 20 and 100 μg/ml of host defense peptides were assessed for various cytokines and chemokines at the 24 hour time-point by ELISA (eBiosciences). […] Subsequently, selected host defense peptides were examined for protective activity in vivo. Briefly, BALB/c mice were administered peptides (8 mg/kg) by i.p. administration 4 h prior to infection. Mice were infected with 8.4×10^7 S. aureus in 5% mucin by i.p. administration. Bacterial counts in the peritoneal lavage were determined in 24 h after the initiation of infection.

[2] = system: human cord blood mononuclear cells; test: Peptide activity in human cord blood mononuclear cells; assay type: cell-based
Procedure: as §1

human PBMCs = test: MCP-1 induction by nucleic acid-peptide formulations in human PBMCs; assay type: cell-based; settings: human PBMCs 24 hours; coupled with peptide 1002 or 1018; four biological replicates
Procedure: Chemokine induction by nucleic acid-peptide formulations Direct complex formation between the various nucleic acids and synthetic host defense peptides was verified prior to human PBMC stimulations. For determination of the immunostimulatory activities of various nucleic acids in complex with host defense peptides in vitro, the following experiment was conducted. Various combinations of CpG ODN 10103, non-CpG ODN 5′[…]3′ (SEQ ID NO:13), poly(I:C) and the synthetic host defense peptides 1002 and 1018 were examined for chemokine induction. Briefly, nucleic acids and peptide were co-incubated for 30 min at 37° C. prior to cell stimulations. Human PBMCs were stimulated with the various formulations for 24 hours and levels of MCP-1 were measured by ELISA. Optimal ratios 2:1, 1:1 and 1:2 nucleic acid:host defense peptide (μg/ml:μg/ml) were identified between concentration thresholds of 40 μg/ml and 10 μg/ml. The results were from four biological replicates.

ΔF from BRSV = test: Immunization of mice with BRSV ΔF protein co-formulated with CpG ODN 1826, indolicidin and/or polyphosphazene; assay type: in vivo, C57BL/6 and Balb/c mice; settings: overall conclusion
Procedure: Six- to eight-week-old female C57BL/6 mice (Charles River, Montreal, Quebec) were immunized twice subcutaneously at 3 week intervals with 100 μL of vaccine containing 0.5 μg ΔF from BRSV (a truncated form of the BRSV F protein engineered to lack the transmembrane domain (aa1-522 only), either alone, or co-formulated with CpG oligonucleotide 1826 (CpG ODN), indolicidin (indol), and/or polyphosphazene (PP). CpG ODN, indolicidin and polyphosphazene were given at doses of 10 μg, 20 μg, and 50 μg, respectively. Negative control animals were immunized with buffer (placebo). CpG ODN 1826 ([…]) (SEQ ID NO:8) was provided by Merial (Lyon, France), and contained a phosphorothioate-modified backbone. […]
Statistical analysis was carried out using GraphPad Prism version 5.00 for Windows (GraphPad Software, San Diego, Calif.). Differences between groups were determined using a Mann-Whitney U test.
CpG ODN 1826, indolicidin, and polyphosphazene were examined for their ability to enhance antigen-specific immune responses when administered with the ΔF protein, either alone, or co-formulated with CpG, indolicidin, and/or PP. […] Mice were immunized twice subcutaneously, and serum total anti-ΔF IgG titers were measured after each immunization by ELISA. […]

[3] = Effect of indolicidin dose on adjuvant activity with CpG ODN 1826 (unpublished results); assay type: in vivo; settings: 20 μg of peptide co-administered with CpG ODN 1826
Source text: Adjuvant doses were selected based on previous reports of adjuvanticity of the individual components.

[4] = Cytokine production by indolicidin with CpG ODN (unpublished results)
Source text: The combination of indolicidin, however, along with CpG ODN and polyphosphazene enhanced ΔF-specific humoral and cellular immune responses, and generated a Th1 response. […] The combination of all three adjuvants was required for optimal enhancement of the immune response, as well as to shift the resulting anti-ΔF immune response from Th2 to Th1. However the mechanisms of this immune enhancement are unclear. Without being bound by a particular theory, the enhanced immunogenicity and Th1-biasing effect of the combination with all three adjuvants with ΔF could be as a result of the stabilization and prolonged effect of CpG ODN and/or ΔF, and an increased uptake of CpG ODN and ΔF into antigen-presenting cells.

[5] = system: human PBMCs and human red blood cells; test: Cytotoxicity: LDH release in human PBMCs and haemolysis of human red blood cells
S. aureus = test: Protection against S. aureus infection in mice; assay type: in vivo, BALB/c mice; settings: 8 mg/kg i.p. 4 h prior to infection; bacterial counts in peritoneal lavage at 24 h
Procedure: as §1

human PBMC [6] = test: MCP-1 induction by triple adjuvant formulations (peptide, CpG 10103, PCPP) in human PBMC; assay type: cell-based; settings: 24 hours, peptide 40 μg/ml, CpG 20 μg/ml, no PCPP, average of 4 biological replicates
Procedure: The effect of PCPP addition on chemokine induction by peptide-CpG 10103 complexes was assessed by the induction of MCP-1 in human PBMCs. Briefly, peptide-CpG complexes were formed as previously described and following incubation PCPP, with or without MgCl2 (pH 7.4), was added to the peptide-CpG complexes at various concentrations and incubated for 30 min at 37° C. Following incubation, human PBMCs were stimulated with the various formulations for 24 hours and levels of MCP-1 were measured by ELISA.

[7] = Table 2, JK peptides, human PBMCs, peptide concentration 20 μg/ml
[8] = Table 2, JK peptides, human PBMCs, peptide concentration 100 μg/ml
[9] = human PBMC, peptide concentration 20 μg/ml
[10] = human PBMC, peptide concentration 20 μg/ml, 24 hour, ELISA
[11] = human PBMC, peptide concentration 100 μg/ml
[12] = human PBMC, peptide concentration 100 μg/ml, 24 hour, ELISA
[13] = Table 3, indolicidin derivatives, human PBMCs, peptide concentration 20 (unit not given)
[14] = Table 3, indolicidin derivatives, human PBMCs, peptide concentration 100 (unit not given)

Substance: JK1: peptide VFLRRIRVIVIR (SEQ ID NO:2) (JK1)
- Chemokine Induction Gro-α (human PBMC [1]; [7]): 377 pg/mL
- Chemokine Induction MCP-1 (human PBMC [1]; [7]): 663 pg/mL
- Chemokine Induction Gro-α (human PBMC [1]; [8]): 105 pg/mL
- Chemokine Induction MCP-1 (human PBMC [1]; [8]): 1226 pg/mL

Substance: HH18: host defense peptide IWVIWRR (SEQ ID NO:21) (HH18)
- activity in human cord blood mononuclear cells [2]: further confirmed
- Chemokine Induction Gro-α (human PBMC [1]; [9]): 865 pg/mL
- Chemokine Induction MCP-3 (human PBMC [1]; [9]): 32 pg/mL
- Chemokine Induction MCP-1 (human PBMC [1]; [10]): 1111 pg/mL
- Chemokine Induction Gro-α (human PBMC [1]; [11]): 2964 pg/mL
- Chemokine Induction MCP-3 (human PBMC [1]; [11]): 431 pg/mL
- Chemokine Induction MCP-1 (human PBMC [1]; [12]): 9608 pg/mL
- induction of chemokines and cytokines in human PBMCs (ranking in panel) (human PBMC [1]; panel of 20 HH-class peptides, 20 and 100 μg/ml, 24 hour): most active peptides

Substance: polyriboinosinic acid-polyribocytidylic acid [poly(I:C)]
- induction of MCP-1 versus individual components (human PBMCs): synergistic induction of MCP-1

Substance: indolicidin [reference compound]
- type and enhancement of ΔF-specific immune response (ΔF from BRSV): sustain the type-2 immune response; also recorded: did not appear to be an effective adjuvant
- adjuvant activity and class switching to IgG2a by dose [3]: enhanced antigen-specific immune responses and effected class switching to IgG2a better than when the peptide was administered at a 10-fold higher dose
- production of Th1 cytokines IL-12 and IFN-γ and chemotactic factor MCP-1 [4]: acts synergistically with CpG ODN
- Chemokine Induction Gro-α (human PBMC [1]; [13]): 84 pg/mL
- Chemokine Induction MCP-1 (human PBMC [1]; [13]): 245 pg/mL
- Chemokine Induction Gro-α (human PBMC [1]; [14]): 846 pg/mL
- Chemokine Induction MCP-1 (human PBMC [1]; [14]): 3120 pg/mL

Substance: VQRWLIVWRIRK [Peptide 1002]
- cytotoxicity (LDH release in human PBMCs, haemolysis of human red blood cells) [5]: minimal cytotoxicity

Substance: JK6: peptide VQWRRIRVWVIR (SEQ ID NO:7) (JK6)
- Chemokine Induction Gro-α (human PBMC [1]; [7]): 254 pg/mL
- Chemokine Induction MCP-1 (human PBMC [1]; [7]): 721 pg/mL
- Chemokine Induction Gro-α (human PBMC [1]; [8]): 68 pg/mL
- Chemokine Induction MCP-1 (human PBMC [1]; [8]): 671 pg/mL

Substance: VRLIVAVRIWRR-NH2 [Peptide 1018]
- cytotoxicity (LDH release in human PBMCs, haemolysis of human red blood cells) [5]: minimal cytotoxicity

Substance: CpG ODN 1826
- type and enhancement of ΔF-specific immune response (ΔF from BRSV): shift towards a Th1 or balanced immune response

Substance: Nisin Z [reference compound]
- protection in animal challenges against S. aureus (S. aureus): offered protection
- MCP-1 Induction (human PBMC [6]): 47 pg/mL
- Chemokine Induction Gro-α (human PBMC [1]; [9]): 62 pg/mL
- Chemokine Induction MCP-1 (human PBMC [1]; [10]): 434 pg/mL
- Chemokine Induction Gro-α (human PBMC [1]; [11]): 5811 pg/mL
- Chemokine Induction MCP-1 (human PBMC [1]; [12]): 7329 pg/mL

Substance: JK3: peptide VQLRAIRVRVIR (SEQ ID NO:4) (JK3)
- Chemokine Induction Gro-α (human PBMC [1]; [7]): 430 pg/mL
- Chemokine Induction MCP-1 (human PBMC [1]; [7]): 873 pg/mL
- Chemokine Induction Gro-α (human PBMC [1]; [8]): 320 pg/mL
- Chemokine Induction MCP-1 (human PBMC [1]; [8]): 747 pg/mL

Substance: JK5: peptide VQWRAIRVRVIR (SEQ ID NO:6) (JK5)
- Chemokine Induction Gro-α (human PBMC [1]; [7]): 317 pg/mL
- Chemokine Induction MCP-1 (human PBMC [1]; [7]): 673 pg/mL
- Chemokine Induction Gro-α (human PBMC [1]; [8]): 123 pg/mL
- Chemokine Induction MCP-1 (human PBMC [1]; [8]): 529 pg/mL

Substance: JK4: peptide VQLRRIRVWVIR (SEQ ID NO:5) (JK4)
- Chemokine Induction Gro-α (human PBMC [1]; [7]): 245 pg/mL
- Chemokine Induction MCP-1 (human PBMC [1]; [7]): 655 pg/mL
- Chemokine Induction Gro-α (human PBMC [1]; [8]): 80 pg/mL
- Chemokine Induction MCP-1 (human PBMC [1]; [8]): 557 pg/mL
